These results are taken from PMC9186412, “Rational Framework for the Design of Trp- and Arg-Rich Peptide Antibiotics Against Multidrug-Resistant Bacteria” (Frontiers in Microbiology, 2022).

Converted amounts (≈) assume the structure as drawn. Where two headings read alike, the source gives them in different places. Where no end group is shown, it is not given here.

In test [1] the test system is CDC AR isolates. Also on record: key: S (green), susceptible; I (blue), intermediate; R (red), resistant. The conditions noted are these: data provided by the CDC, ref CDC, cited from earlier work. The text has this: Supplement Table_3.XLSX, sheet "CDC AR isolates profiles" | column: G(-) strains
A further test deals with A. baumannii. In words: microbe, parasite or virus in culture. Particulars: 18 h. Format: cell-based, Acinetobacter baumannii. The procedure:
(§1) Bacterial clinical isolates, used for initial screening and in previous studies ([Deslouches et al., 2013]; [Lin et al., 2018]), were anonymously provided by the clinical microbiology laboratory of the University of Pittsburgh medical Center. The panel used for secondary screening was from [CDC (2013)] (Supplementary Table 3), with resistance profiles data. Bacteria are stored in lock-secured –80°C freezer and typically retrieved by obtaining single colonies on agar plates prior for subsequent liquid broth cultures. Suspensions of test bacteria were prepared from log phase of growth by diluting overnight cultures at 1:100 with fresh cation-adjusted MHB (MHB2, Millipore Sigma, United States) and incubating for additional 3–4 h. Bacteria were spun at 3,000 × g for 10 min and the pellet resuspended in test condition media (Millipore Sigma, United States) to determine bacterial turbidity using a Den-1B densitometer (Grant Instruments, United States) at 0.5 McFarland (unit of bacterial density) corresponding to […].
(§2) To examine antibacterial activity, we used minor modifications of a standard growth inhibition assay endorsed by the Clinical and Laboratory Standards Institute (CLSI), as previously described ([Deslouches et al., 2013]). Bacteria were incubated with each of the indicated peptides in MHB2. The bacterial cells were kept in an incubator for 18 h at 37°C, which is linked to a robotic system that feeds a plate reader every hour with one of 8 × 96-well plates. This set-up allows the collection of growth kinetic data at A 570 (absorbance at 570 nm) to examine growth inhibition in real time (BioTek Instruments, United States). […] The assays are typically repeated a second time. If the MIC is different, a third experimental trial is performed to confirm the MIC. To assess bactericidal properties of the peptide, the assay was modified by using 15% fetal bovine serum (FBS, for a more physiologically relevant test condition) mixed with 25% MHB2 and 60% PBS. Bacterial cells (colony forming unit/mL or CFU/mL) were enumerated after incubating treated bacteria for 3 h and plating serially diluted samples on broth agar medium at 37°C overnight. Minimum bactericidal concentration (MBC) was determined as the peptide concentration at which complete bacterial killing was observed. […] Data were analyzed using GraphPad Prism software.

For a further test, the system named is Enterobacter spp. In words: microbe, parasite or virus in culture. Type of test: cell-based, Enterobacter spp (aerogenes, cloacae). Particulars: Enterobacter, 18 h, UPMC, MHB2, 18 h, 37°C. The procedure: as §1, §2
The next test deals with E. coli. The experiment in a line: microbe, parasite or virus in culture. Format: cell-based, Escherichia coli. The procedure:
as §1, §2

The subject of a further test is K. pneumoniae. The experiment in a line: microbe, parasite or virus in culture. Format: cell-based, Klebsiella pneumoniae. Particulars: Klebsiella pneumoniae, 18 h, MHB2, 18 h, 37°C. The procedure: as §1, §2
Test [2] relates to CDC AR isolates. The arrangement: key: S (green), susceptible; I (blue), intermediate; R (red), resistant. Particulars: data provided by the CDC, ref CDC, cited from earlier work. This is another data set of the same source.
Setting [3] is: Acinetobacter baumannii AB273, CDC AR isolate.
Setting [4] is: Acinetobacter baumannii AB274, CDC AR isolate.
[5] abbreviates: Acinetobacter baumannii AB275, CDC AR isolate.
Setting [6] is: Acinetobacter baumannii AB276, CDC AR isolate.
[7] abbreviates: Enterobacter cloacae E62, CDC AR isolate.
The mark [8] stands for this setting: Enterobacter cloacae E544, CDC AR isolate.
Setting [9] is: Enterobacter cloacae E545, CDC AR isolate.
Where [10] appears, read: Enterobacter cloacae E546, CDC AR isolate.
Where [11] appears, read: Escherichia coli EC541, CDC AR isolate.
Setting [12] is: Escherichia coli EC543, CDC AR isolate.
The mark [13] stands for this setting: Escherichia coli EC544, CDC AR isolate.
Where [14] appears, read: Escherichia coli EC549, CDC AR isolate.
Setting [15] is: Klebsiella pneumoniae KP542, CDC AR isolate.
Where [16] appears, read: Klebsiella pneumoniae KP548, CDC AR isolate.
Setting [17] is: Klebsiella pneumoniae KP550, CDC AR isolate.
Where [18] appears, read: Klebsiella pneumoniae KP552, CDC AR isolate.
Setting [19] is: Staphylococcus aureus SA461, CDC AR isolate.
Setting [20] is: Staphylococcus aureus SA462, CDC AR isolate.
Where [21] appears, read: Staphylococcus aureus SA463, CDC AR isolate.
Setting [22] is: Staphylococcus aureus SA561, CDC AR isolate.
Setting [23] is: Enterococcus faecium EF673, CDC AR isolate.
The mark [24] stands for this setting: Enterococcus faecium EF500, CDC AR isolate.
The mark [25] stands for this setting: Enterococcus faecium EF671, CDC AR isolate.
Where [26] appears, read: Enterococcus faecium EF672, CDC AR isolate.

For `C[C@@H](O)[C@H]1C(=O)N2C(C(=O)O)=C(S[C@@H]3CN[C@H](C(=O)N(C)C)C3)[C@H](C)[C@H]12` [Meropenem, reference compound], the Antibiotic susceptibility profile result with CDC AR isolates [1] (setting [3]) is recorded as “R”; in the test on CDC AR isolates [1] (setting [4]) it was “R”; with CDC AR isolates [1] (setting [5]), “R”; with CDC AR isolates [1] (setting [6]), “R”; in the test with CDC AR isolates [1] (setting [7]), “S”; in the test with CDC AR isolates [1] (setting [8]), “R”. The Antibiotic susceptibility profile entry in the test with CDC AR isolates [1] (setting [9]) is on record as “S”; in the test on CDC AR isolates [1] (setting [10]) it was “I”; with CDC AR isolates [1] (setting [11]), “S”; with CDC AR isolates [1] (setting [12]), “I”; in the test with CDC AR isolates [1] (setting [13]) it was “R”; with CDC AR isolates [1] (setting [14]), “R”. Besides, the Antibiotic susceptibility profile result is given as “I” in the test with CDC AR isolates [1] (setting [15]); “R” in the test on CDC AR isolates [1] (setting [16]); “R” with CDC AR isolates [1] (setting [17]); “R” with CDC AR isolates [1] (setting [18]); “R” in the test with CDC AR isolates [1] (Pseudomonas aeruginosa PA229, CDC AR isolate); “R” in the test with CDC AR isolates [1] (Pseudomonas aeruginosa PA230, CDC AR isolate). The Antibiotic susceptibility profile result in the test on CDC AR isolates [1] (Pseudomonas aeruginosa PA231, CDC AR isolate) is “R”; in the test on CDC AR isolates [1] (Pseudomonas aeruginosa PA232, CDC AR isolate) it was “I”; in the test with CDC AR isolates [1] (Pseudomonas aeruginosa PA239, CDC AR isolate) it was “R”. In addition, the MIC in the test on A. baumannii (Acinetobacter baumannii, strain AB-A2, UPMC clinical strain, MHB2, 18 h, 37°C, A570, confirmed by 2nd or 3rd trial) was 4 µM (≈ 1.53 µg/mL); against A. baumannii (Acinetobacter baumannii, strain AB-A3, UPMC, MHB2, 18 h, 37°C), over 16 µM; in the test with A. baumannii (Acinetobacter baumannii, strain AB-F8, UPMC, MHB2, 18 h, 37°C), 8 µM (≈ 3.07 µg/mL); against A. baumannii (Acinetobacter baumannii, strain AB-F9, UPMC, MHB2, 18 h, 37°C), 8 µM (≈ 3.07 µg/mL); with Enterobacter spp (strain EA518 (aerogenes)), over 16 µM; against Enterobacter spp (strain EA596 (aerogenes)) it was 16 µM (≈ 6.14 µg/mL). In addition, the MIC with Enterobacter spp (strain EC470 (cloacae)) was over 16 µM; against Enterobacter spp (strain EC560 (cloacae)), 16 µM (≈ 6.14 µg/mL); against E. coli (Escherichia coli, 18 h, strain Eco25922, MHB2, 18 h, 37°C) it was 0.5 µM (≈ 0.192 µg/mL); against E. coli (Escherichia coli, 18 h, strain YDC107, UPMC, MHB2, 18 h, 37°C), 1 µM (≈ 0.383 µg/mL); against E. coli (Escherichia coli, 18 h, strain YDC337, UPMC, MHB2, 18 h, 37°C), 8 µM (≈ 3.07 µg/mL); in the test on E. coli (Escherichia coli, 18 h, strain YDC748, UPMC, MHB2, 18 h, 37°C), 8 µM (≈ 3.07 µg/mL). In addition, the MIC in the test on K. pneumoniae (strain KP43816) was determined as 1 µM (≈ 0.383 µg/mL); with K. pneumoniae (strain KPA5 (colistin-resistant), UPMC), 2 µM (≈ 0.767 µg/mL); in the test on K. pneumoniae (strain KPB3, UPMC), 2 µM (≈ 0.767 µg/mL); in the test with K. pneumoniae (strain KPC3, UPMC), 1 µM (≈ 0.383 µg/mL).
`CN(C)[C@@H]1C(O)=C(C(N)=O)C(=O)[C@@]2(O)C(O)=C3C(=O)c4c(O)cccc4[C@@](C)(O)[C@H]3C[C@@H]12` [Tetracycline]: the Antibiotic susceptibility profile result in the test on CDC AR isolates [2] (setting [19]) was “S”; in the test with CDC AR isolates [1] (setting [3]), “R”; with CDC AR isolates [1] (setting [4]) it was “R”; in the test with CDC AR isolates [1] (setting [5]), “R”; in the test on CDC AR isolates [1] (setting [6]), “S”; in the test on CDC AR isolates [1] (setting [7]), “S”. The Antibiotic susceptibility profile result in the test with CDC AR isolates [1] (setting [8]) is “R”; with CDC AR isolates [1] (setting [9]) it was “I”; with CDC AR isolates [1] (setting [10]) it was “R”; in the test with CDC AR isolates [1] (setting [11]), “R”; in the test on CDC AR isolates [1] (setting [12]), “R”; in the test with CDC AR isolates [1] (setting [13]), “R”. Further, the Antibiotic susceptibility profile entry is “R” in the test with CDC AR isolates [1] (setting [14]); “R” in the test with CDC AR isolates [1] (setting [15]); “I” in the test on CDC AR isolates [1] (setting [16]); “S” with CDC AR isolates [1] (setting [17]); “R” in the test with CDC AR isolates [1] (setting [18]); “S” with CDC AR isolates [1] (setting [20]). The Antibiotic susceptibility profile entry is on record as “S” in the test with CDC AR isolates [1] (setting [21]) and “R” in the test with CDC AR isolates [1] (setting [22]).
`CN[C@H](CC(C)C)C(=O)N[C@H]1C(=O)N[C@@H](CC(N)=O)C(=O)N[C@H]2C(=O)N[C@H]3C(=O)N[C@H](C(=O)N[C@H](C(=O)O)c4cc(O)cc(O)c4-c4cc3ccc4O)[C@H](O)c3ccc(c(Cl)c3)Oc3cc2cc(c3O[C@@H]2O[C@H](CO)[C@@H](O)[C@H](O)[C@H]2O[C@H]2C[C@](C)(N)[C@H](O)[C@H](C)O2)Oc2ccc(cc2Cl)[C@H]1O` [Vancomycin]: the Antibiotic susceptibility profile entry was “S” in the test with CDC AR isolates [2] (setting [23]); “S” with CDC AR isolates [2] (setting [19]); “S” in the test on CDC AR isolates [1] (setting [24]); “S” in the test on CDC AR isolates [1] (setting [25]); “S” with CDC AR isolates [1] (setting [26]); “I” with CDC AR isolates [1] (setting [20]). For the same molecule, the Antibiotic susceptibility profile result in the test with CDC AR isolates [1] (setting [21]) and in the test with CDC AR isolates [1] (setting [22]) was “S” each time.
On to Penicillin, for which the Antibiotic susceptibility profile entry with CDC AR isolates [2] (setting [23]) was “S”; with CDC AR isolates [2] (setting [19]), “S”; with CDC AR isolates [1] (setting [24]), “R”; in the test on CDC AR isolates [1] (setting [25]) it was “S”; with CDC AR isolates [1] (setting [26]), “S”; with CDC AR isolates [1] (setting [20]) it was “R”. Also, the Antibiotic susceptibility profile result with CDC AR isolates [1] (setting [21]) and in the test on CDC AR isolates [1] (setting [22]) was “R” each time.
As to RRVWRRVRRVWRRVRRVVRRVW [E71], the MIC against A. baumannii came to 8 µM.
In the test with E. coli, RRVWRRVRRVWRRVRRWVRRVV [E72] displayed an MIC of 0.5 µM.
For RRWVRWVRRWVRWVRR [E80], the MIC against A. baumannii stood at 16 µM.
Still for that read-out and setting: to RVWRRVRRVWRRVRRVWRRV [E69] belongs 8 µM.
For Teicoplanin, the Antibiotic susceptibility profile result with CDC AR isolates [2] (setting [23]), with CDC AR isolates [1] (setting [24]), in the test on CDC AR isolates [1] (setting [25]) and in the test on CDC AR isolates [1] (setting [26]) was “S” throughout.
